The text below walks through data of patent publication US20040023862A1, “Uses of bombesin receptor 3” (SmithKline Beedham p. l. c., priority 2000, published 2004).

T1: human bombesin receptor 3 (BRS3), endogenous in NCI-N417 cells (human) (UniProt P32247)
T1 sequence: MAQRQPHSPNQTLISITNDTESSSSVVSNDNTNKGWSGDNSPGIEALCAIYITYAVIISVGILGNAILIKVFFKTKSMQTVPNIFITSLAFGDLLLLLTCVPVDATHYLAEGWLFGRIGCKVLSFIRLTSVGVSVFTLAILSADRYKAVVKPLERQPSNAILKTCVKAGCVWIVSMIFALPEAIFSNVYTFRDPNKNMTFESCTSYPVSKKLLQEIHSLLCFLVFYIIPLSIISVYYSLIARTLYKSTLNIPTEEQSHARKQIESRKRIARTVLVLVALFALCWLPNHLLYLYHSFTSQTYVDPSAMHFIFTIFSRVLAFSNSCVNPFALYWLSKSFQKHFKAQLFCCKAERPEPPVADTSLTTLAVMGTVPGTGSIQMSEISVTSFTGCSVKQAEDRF

T2: endogenous human BRS-3 in NCI-N417 cells (Homo sapiens, UniProt P32247)
T2 construct: Agonist Pharmacology at the Endogenous Human BRS-3 in NCI-N417 Cells; endogenous in cells; host or cells: NCI-N417 cells
T2 sequence (P32247 1-399): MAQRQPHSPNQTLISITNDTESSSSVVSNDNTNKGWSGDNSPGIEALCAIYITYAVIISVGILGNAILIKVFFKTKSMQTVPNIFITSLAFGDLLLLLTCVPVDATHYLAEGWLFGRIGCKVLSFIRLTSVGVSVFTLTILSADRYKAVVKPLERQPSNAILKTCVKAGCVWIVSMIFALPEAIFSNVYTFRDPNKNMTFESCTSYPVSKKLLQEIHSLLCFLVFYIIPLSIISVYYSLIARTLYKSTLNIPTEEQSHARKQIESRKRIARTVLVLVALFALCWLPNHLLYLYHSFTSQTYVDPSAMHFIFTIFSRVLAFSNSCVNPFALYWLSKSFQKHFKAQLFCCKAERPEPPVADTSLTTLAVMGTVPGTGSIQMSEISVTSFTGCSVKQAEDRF

T3: BRS3 (Homo sapiens, UniProt P32247)
T3 sequence (P32247 1-399): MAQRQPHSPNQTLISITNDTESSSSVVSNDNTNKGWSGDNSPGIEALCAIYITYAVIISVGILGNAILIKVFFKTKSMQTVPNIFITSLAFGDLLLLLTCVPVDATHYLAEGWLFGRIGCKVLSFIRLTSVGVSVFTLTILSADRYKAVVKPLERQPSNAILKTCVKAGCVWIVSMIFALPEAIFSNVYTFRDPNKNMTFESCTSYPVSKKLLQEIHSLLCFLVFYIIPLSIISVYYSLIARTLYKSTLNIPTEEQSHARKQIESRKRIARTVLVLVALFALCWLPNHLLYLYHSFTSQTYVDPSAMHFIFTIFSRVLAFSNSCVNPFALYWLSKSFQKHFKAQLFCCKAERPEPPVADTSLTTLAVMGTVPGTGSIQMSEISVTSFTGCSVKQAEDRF

Non-standard residues stand in square brackets, D forms with d. Residues, ends and D or L forms follow the SMILES beside them. No end group written: not given here. *: point of attachment. pGlu = O=C1CC[C@@H](C(=O)O)N1; Nle = CCCC[C@H](N)C(=O)O; βAla = NCCC(=O)O; NHPr = CCCN*

For one assay, the target named is T1, human bombesin receptor 3 (BRS3), endogenous in NCI-N417 cells (human). The experiment in a line: cell-based or functional assay.
Details: not given
As to Bombesin (peptide), the Efficacy; intracellular calcium (FLIPR) in NCI-N417 cells came out at 23% and the pEG50 [sic, pEC50]; intracellular calcium (Fluo-3AM fluorescence, FLIPR) in NCI-N417 cells is < 5 -log10(M).

In the case of PG-L (peptide), the pEG50 [sic, pEC50]; intracellular calcium (Fluo-3AM fluorescence, FLIPR) in NCI-N417 cells was 5.54 -log10(M).

With Ranantensin (peptide), the pEG50 [sic, pEC50]; intracellular calcium (Fluo-3AM fluorescence, FLIPR) in NCI-N417 cells is 5.59 -log10(M). On to [D-Phe^1, Nle^9]litorin (peptide), for which the pEG50 [sic, pEC50]; intracellular calcium (Fluo-3AM fluorescence, FLIPR) in NCI-N417 cells is 5.96 -log10(M). Still for that read-out and setting: the figure for “[D-Phe^6, Phe^13]BN(6-13) propylamide (peptide)” is 6.83 -log10(M); for “[D-Phe^6, βAla^11, Phe^13, Nle^14]Bombesin(6-14) (peptide)” it is 7.88 -log10(M).

On to [D-Phe^6]BN(6-13) propylamide (peptide), for which the pEG50 [sic, pEC50]; intracellular calcium (Fluo-3AM fluorescence, FLIPR) in NCI-N417 cells is 5.86 -log10(M). On to “[D-Tyr^6, βAla^11, Phe^13, Nle^14]Bombesin(6-14) (peptide)”, for which the pEG50 [sic, pEC50]; intracellular calcium (Fluo-3AM fluorescence, FLIPR) in NCI-N417 cells is 8.02 -log10(M). Regarding neuromedin C (NMC) (peptide), the Efficacy; intracellular calcium (FLIPR) in NCI-N417 cells stood at 20%. As to VPLPAGGGTVLTKMYPRGNHWAVGHLM (peptide, UniProt P07492 24-50, looked up, species assumed, ends and bridges not checked) [gastrin-releasing peptide (GRP)], the Efficacy; intracellular calcium (FLIPR) in NCI-N417 cells was 23% and the pEG50 [sic, pEC50]; intracellular calcium (Fluo-3AM fluorescence, FLIPR) in NCI-N417 cells was < 5 -log10(M). Consider Ac-LWATGHFM (peptide, UniProt P08949 49-56, looked up, species assumed, ends and bridges not checked) [AcNMB(3-10)], for which the pEG50 [sic, pEC50]; intracellular calcium (Fluo-3AM fluorescence, FLIPR) in NCI-N417 cells is 5.73 -log10(M).

Take GNLWATGHFM (peptide, UniProt P08949 47-56, looked up, species assumed, ends and bridges not checked) [neuromedin B (NMB)]: the pEG50 [sic, pEC50]; intracellular calcium (Fluo-3AM fluorescence, FLIPR) in NCI-N417 cells was 5.65 -log10(M).

The target of a further assay is T2, endogenous human BRS-3 in NCI-N417 cells. The experiment in a line: Agonist pharmacology, FLIPR intracellular calcium (Fluo-3AM) in NCI-N417 cells. It counts as cell-based.
Details: not given
As for the experimental part:
Agonist Pharmacology at the Endogenous Human BRS-3 in NCI-N417 Cells
NCI-N417 cells were seeded into Costar 96 well black walled plates (30,000 cells per well), cultured overnight in RPMI 1640 medium containing 10% foetal calf serum and 1% L-glutamine, and then loaded with the cytoplasmic calcium indicator Fluo-3AM (4 μM) in the presence of 2.5 mM probenecid at 37° C. for 60 min. The cells were then washed 4× with, and finally resuspended in, Tyrode's medium containing 2.5 mM probenecid. Fluorescence was then monitored using a FLIPR (λEX=488 nm, λEM=540 nm) before and after the addition of various ligands (10 pM-10 μM), as described previously (Smart et al (1999). Br. J. Pharmacol. 128:1-4).
For orientation: Calcium assays in cells follow changes in intracellular calcium, usually with a dye or a luminescent sensor.
Regarding `CCCC[C@H](NC(=O)[C@H](Cc1ccccc1)NC(=O)[C@H](Cc1c[nH]cn1)NC(=O)CNC(=O)[C@@H](NC(=O)[C@H](C)NC(=O)[C@H](Cc1c[nH]c2ccccc12)NC(=O)[C@H](CCC(N)=O)NC(=O)[C@H](N)Cc1ccccc1)C(C)C)C(N)=O` [[D-Phe^1, Nle^9]litorin], the EC50 was 1100 nM. As for `CCCNC(=O)[C@H](Cc1ccccc1)NC(=O)[C@H](Cc1c[nH]cn1)NC(=O)CNC(=O)[C@@H](NC(=O)[C@H](C)NC(=O)[C@H](Cc1c[nH]c2ccccc12)NC(=O)[C@H](CCC(N)=O)NC(=O)[C@H](N)Cc1ccccc1)C(C)C` [[D-Phe^6, Phe^13]BN(6-13) propylamide] (H-[dF]QWAVGHF-NHPr; N-terminus assumed), the EC50 was 148 nM. The same measure, in the same setting: the figure for `CCCNC(=O)[C@H](CC(C)C)NC(=O)[C@H](Cc1c[nH]cn1)NC(=O)CNC(=O)[C@@H](NC(=O)[C@H](C)NC(=O)[C@H](Cc1c[nH]c2ccccc12)NC(=O)[C@H](CCC(N)=O)NC(=O)[C@H](N)Cc1ccccc1)C(C)C` [[D-Phe^6]BN(6-13) propylaniide] is 1380 nM.

The same assay, now with this note: calcium mobilisation, FLIPR, NCI-N417 cells, ligands 10 pM-10 μM; read-out: pEG50 (the source's name) (converted).
For the molecule `CCCC[C@H](NC(=O)[C@H](Cc1ccccc1)NC(=O)[C@H](Cc1cnc[nH]1)NC(=O)CCNC(=O)[C@@H](NC(=O)[C@H](C)NC(=O)[C@H](Cc1c[nH]c2ccccc12)NC(=O)[C@H](CCC(N)=O)NC(=O)[C@H](N)Cc1ccc(O)cc1)C(C)C)C(N)=O` [[D-Tyr^6, βAla^11, Phe^13, Nle^14]Bombesin(6-14)] (H-[dY]QWAV[βAla]HF[Nle]-NH2), the EC50 was 9.55 nM.

Still in this assay, the particulars now being: calcium mobilisation, FLIPR, NCI-N417 cells; at 10 μM.
Regarding `CSCC[C@H](NC(=O)[C@H](CC(C)C)NC(=O)[C@H](Cc1cnc[nH]1)NC(=O)CNC(=O)[C@@H](NC(=O)[C@H](C)NC(=O)[C@H](Cc1c[nH]c2ccccc12)NC(=O)[C@H](CCC(N)=O)NC(=O)[C@H](CC(N)=O)NC(=O)CNC(=O)[C@H](CC(C)C)NC(=O)[C@H](CCCN=C(N)N)NC(=O)[C@H](CCC(N)=O)NC(=O)[C@@H]1CCC(=O)N1)C(C)C)C(N)=O` [Bombesin], the Efficacy is 23% at 10 μM.

Still in this assay, the particulars now being: calcium mobilisation, FLIPR, NCI-N417 cells; efficacy in words.
On to `CSCC[C@H](NC(=O)[C@H](Cc1ccccc1)NC(=O)[C@H](Cc1c[nH]cn1)NC(=O)CNC(=O)[C@@H](NC(=O)[C@H](C)NC(=O)[C@H](Cc1c[nH]c2ccccc12)NC(=O)[C@H](CCC(N)=O)NC(=O)[C@@H]1CCCN1C(=O)CNC(=O)CNC(=O)CNC(=O)[C@@H]1CCC(=O)N1)C(C)C)C(N)=O` [PG-L] ([pGlu]GGGPQWAVGHFM-NH2; C-terminus assumed), for which the Efficacy entry is given as “full”. Still for that read-out and setting: in the case of `CSCC[C@H](NC(=O)[C@H](Cc1ccccc1)NC(=O)[C@H](Cc1c[nH]cn1)NC(=O)CNC(=O)[C@@H](NC(=O)[C@H](C)NC(=O)[C@H](Cc1c[nH]c2ccccc12)NC(=O)[C@H](CCC(N)=O)NC(=O)[C@@H]1CCCN1C(=O)[C@@H](NC(=O)[C@@H]1CCC(=O)N1)C(C)C)C(C)C)C(N)=O` [Ranantensin] ([pGlu]VPQWAVGHFM-NH2; C-terminus assumed) it was “full”; in that of `CCCC[C@H](NC(=O)[C@H](Cc1ccccc1)NC(=O)[C@H](Cc1c[nH]cn1)NC(=O)CNC(=O)[C@@H](NC(=O)[C@H](C)NC(=O)[C@H](Cc1c[nH]c2ccccc12)NC(=O)[C@H](CCC(N)=O)NC(=O)[C@H](N)Cc1ccccc1)C(C)C)C(N)=O` [[D-Phe^1, Nle^9]litorin], “full”. Still for that read-out and setting: the entry for `CCCNC(=O)[C@H](Cc1ccccc1)NC(=O)[C@H](Cc1c[nH]cn1)NC(=O)CNC(=O)[C@@H](NC(=O)[C@H](C)NC(=O)[C@H](Cc1c[nH]c2ccccc12)NC(=O)[C@H](CCC(N)=O)NC(=O)[C@H](N)Cc1ccccc1)C(C)C` [[D-Phe^6, Phe^13]BN(6-13) propylamide] (H-[dF]QWAVGHF-NHPr; N-terminus assumed) is “full”.

For `CCCNC(=O)[C@H](CC(C)C)NC(=O)[C@H](Cc1c[nH]cn1)NC(=O)CNC(=O)[C@@H](NC(=O)[C@H](C)NC(=O)[C@H](Cc1c[nH]c2ccccc12)NC(=O)[C@H](CCC(N)=O)NC(=O)[C@H](N)Cc1ccccc1)C(C)C` [[D-Phe^6]BN(6-13) propylaniide], the Efficacy result was “full”. The same measure, in the same setting: in the case of `CCCC[C@H](NC(=O)[C@H](Cc1ccccc1)NC(=O)[C@H](Cc1c[nH]cn1)NC(=O)CCNC(=O)[C@@H](NC(=O)[C@H](C)NC(=O)[C@H](Cc1c[nH]c2ccccc12)NC(=O)[C@H](CCC(N)=O)NC(=O)[C@H](N)Cc1ccc(O)cc1)C(C)C)C(N)=O` [[D-Tyr^6, βAla^11, Phe^13, Nle^14]Bombesin(6-14)] (H-[dY]QWAV[βAla]HF[Nle]-NH2) it was “full”. For AcNMB(3-10), the Efficacy result is reported as “full”. Same read-out and setting: the entry for neuromedin B [NMB] is “full”.

The next assay addresses T3, BRS3.
Test: not given
The conditions noted are these: background statement, in words; cited from earlier work.
Consider `CSCC[C@H](NC(=O)[C@H](CC(C)C)NC(=O)[C@H](Cc1c[nH]cn1)NC(=O)CNC(=O)[C@@H](NC(=O)[C@H](C)NC(=O)[C@H](Cc1c[nH]c2ccccc12)NC(=O)[C@H](Cc1c[nH]cn1)NC(=O)[C@H](CC(N)=O)NC(=O)CNC(=O)[C@H](CCCNC(=N)N)NC(=O)[C@@H]1CCCN1C(=O)[C@H](Cc1ccc(O)cc1)NC(=O)[C@H](CCSC)NC(=O)[C@H](CCCCN)NC(=O)[C@@H](NC(=O)[C@H](CC(C)C)NC(=O)[C@@H](NC(=O)[C@@H](NC(=O)CNC(=O)CNC(=O)CNC(=O)[C@H](C)NC(=O)[C@@H]1CCCN1C(=O)[C@H](CC(C)C)NC(=O)[C@@H]1CCCN1C(=O)[C@@H](N)C(C)C)[C@@H](C)O)C(C)C)[C@@H](C)O)C(C)C)C(N)=O` [GRP, gastrin-releasing peptide], for which the “affinity at BRS3” value was “very low (high μM) affinity”. For the molecule neuromedin B [NMB], the “affinity at BRS3” value was “very low (high μM) affinity”.
